Results as given in paper PMC8266232, “Design, synthesis, and analysis of antiproliferative and apoptosis-inducing activities of nitrile derivatives containing a benzofuran scaffold: EGFR inhibition assay and molecular modelling study” (Journal of Enzyme Inhibition and Medicinal Chemistry, 2021).
Read-outs that look alike come from different tables or passages of the source.

How the values were obtained:
[1] = system: MCF-7 cells (human breast adenocarcinoma); experiment: MTT antiproliferative assay, MCF-7; type: cell-based; conditions: MCF-7, triplicate, read-out: In vitro cytotoxicity IC50, MCF-7
Description: (§1) The in vitro antiproliferative activity of all synthesised compounds was evaluated by an MTT assay according to the reported method[47]^,[48].
(§2) 2. Experimental procedure
(§3) 2.1. Antiproliferative screening
(§4) The in vitro antiproliferative activity of all synthesized compounds was evaluated by an MTT assay according to the reported method using five different human cancer cell lines, including […]
(§5) cervical carcinoma (HeLa), and human prostate cancer (PC-3). The cell lines were obtained from ATCC via a holding company for biological products and vaccines (VACSERA), Cairo, Egypt. The MTT assay is a colorimetric assay used for measuring the cellular growth based on the reduction of the yellow MTT to a purple formazan derivative by mitochondrial succinate dehydrogenase in viable cells. The color intensity of the formazan dye is correlated to the number of viable cells. The […]
(§6) IC50% values were calculated using dose response curves. The percentage of relative cell viability was calculated as (A570 of treated samples)/(A570 of untreated sample) × 100. The cytotoxic activity was defined as the concentration of the compound that caused 50% growth inhibition compared with the growth of an untreated cell. […]

[2] = system: HePG2, HCT-116, MCF-7, PC3, HeLa cell lines; experiment: MTT antiproliferative assay, IC50 range over the cancer cell line panel; type: cell-based; conditions: Homo sapiens
Description: as §1, §2, §3, §4, §5, §6

[3] = system: HePG2 cells (hepatocellular carcinoma); experiment: MTT antiproliferative assay, HePG2; type: cell-based, human; conditions: HePG2, triplicate, read-out: In vitro cytotoxicity IC50, HePG2
Description: as §1, §2, §3, §4, §5, §6

[4] = system: PC3 cells (human prostate carcinoma); experiment: MTT antiproliferative assay, PC3; type: cell-based; conditions: PC-3, PC3, triplicate, read-out: In vitro cytotoxicity IC50, PC3
Description: as §1, §2, §3, §4, §5, §6

[5] = system: HCT-116 cells (colorectal carcinoma); experiment: MTT antiproliferative assay, HCT-116; type: cell-based, human; conditions: HCT-116, triplicate, read-out: In vitro cytotoxicity IC50, HCT-116
Description: as §1, §2, §3, §4, §5, §6

[6] = system: HeLa cells (cervical carcinoma); experiment: MTT antiproliferative assay, HeLa; type: cell-based, human; conditions: triplicate, read-out: In vitro cytotoxicity IC50, HeLa
Description: as §1, §2, §3, §4, §5, §6

WI38 normal cell = experiment: MTT cytotoxicity on normal fibroblast cells; type: cell-based; conditions: Homo sapiens, WI-38; MTT assay, non tumour normal cell WI38
EGFR TK = target: T1, EGFR TK (Homo sapiens, UniProt P00533); experiment: EGFR TK inhibition assay (luminescent, Kinase-Glo MAX); type: biochemical
T1 construct: add 20 μl of diluted EGFR enzyme and incubate at 30°C for 40
T1 sequence (P00533 25-1210): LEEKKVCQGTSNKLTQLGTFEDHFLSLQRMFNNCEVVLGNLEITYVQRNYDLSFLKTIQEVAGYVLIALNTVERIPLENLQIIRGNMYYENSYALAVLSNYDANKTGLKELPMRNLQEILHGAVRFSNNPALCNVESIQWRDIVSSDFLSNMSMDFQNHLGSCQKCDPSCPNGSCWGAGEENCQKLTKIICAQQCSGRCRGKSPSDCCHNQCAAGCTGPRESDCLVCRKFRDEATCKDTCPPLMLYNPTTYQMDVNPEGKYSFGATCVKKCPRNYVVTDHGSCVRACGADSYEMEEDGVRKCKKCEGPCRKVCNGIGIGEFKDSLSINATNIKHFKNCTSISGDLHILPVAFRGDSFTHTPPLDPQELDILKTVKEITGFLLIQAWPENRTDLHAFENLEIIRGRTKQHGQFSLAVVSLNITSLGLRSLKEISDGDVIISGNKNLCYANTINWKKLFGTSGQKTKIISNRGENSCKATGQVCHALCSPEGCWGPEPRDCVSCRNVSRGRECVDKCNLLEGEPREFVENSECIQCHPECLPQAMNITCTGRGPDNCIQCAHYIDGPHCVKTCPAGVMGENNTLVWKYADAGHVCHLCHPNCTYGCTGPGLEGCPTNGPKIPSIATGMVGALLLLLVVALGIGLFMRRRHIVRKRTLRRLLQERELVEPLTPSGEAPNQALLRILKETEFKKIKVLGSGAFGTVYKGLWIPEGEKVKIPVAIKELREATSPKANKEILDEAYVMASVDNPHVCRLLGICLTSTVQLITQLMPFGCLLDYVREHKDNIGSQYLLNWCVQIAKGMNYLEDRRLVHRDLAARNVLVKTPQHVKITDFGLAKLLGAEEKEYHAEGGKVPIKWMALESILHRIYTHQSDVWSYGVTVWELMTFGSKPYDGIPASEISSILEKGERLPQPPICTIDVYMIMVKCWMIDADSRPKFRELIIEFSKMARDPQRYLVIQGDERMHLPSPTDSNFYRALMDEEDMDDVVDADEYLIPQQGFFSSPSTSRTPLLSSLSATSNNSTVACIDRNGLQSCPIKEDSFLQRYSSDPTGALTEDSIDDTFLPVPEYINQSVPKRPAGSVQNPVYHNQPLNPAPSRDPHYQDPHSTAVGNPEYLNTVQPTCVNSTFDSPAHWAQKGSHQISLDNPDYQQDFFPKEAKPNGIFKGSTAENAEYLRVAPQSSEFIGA
Description: 2.2. Epidermal growth factor inhibition assay
In vitro luminescent EGFR tyrosine kinase assay, using Kinase-Glo® MAX as a detection reagent using DP‐Glo™ reagent that measures the adenosine diphosphate (ADP) formed from a kinase reaction, were performed; this luminescent signal positively correlates with ADP amount and kinase activity. In 17 μl of distilled water, 6 μl of Kinase assay buffer and 1 μl ATP and 1 μl PTK substrate were mixed (master mixture). In every well, mix 20 μl of the master mixture and 5 μl of Inhibitor solution (Test Inhibitor) for positive control, and use 5 μl of the same solution without inhibitor (Inhibitor buffer) as the blank solution; add 20 μl of diluted EGFR enzyme and incubate at 30°C for 40

HCT-116 cells [7] = experiment: Annexin V-FITC/PI apoptosis assay, HCT-116; conditions: HCT-116, 10 µM, 24 h
HCT-116 cells [8] = experiment: Cell cycle analysis by PI flow cytometry, HCT-116; conditions: HCT-116, 10 µM, 24 h
[9] = system: human caspase-3 (active) in HCT-116 cells; experiment: Caspase-3 ELISA in HCT-116 cells; type: cell-based
Description: Caspases are critical mediators of programmed cell death, that is, apoptosis. Caspase-3 is important in processes involving dissociation of the cell and the formation of the apoptotic element; therefore, it is regarded as one of the best biochemical hallmarks of apoptosis. […] The concentration of active caspase-3 was measured using the ELISA technique. In addition, the fluorescence density produced by the tested compounds is illustrated in Figure 4. […] The level of caspase-3 increased 5.7-fold compared to the control. Moreover, a considerable 7.3-fold increase in the caspase-3 level was detected following the treatment of the MCF-7 cells with compound 11. The bioluminescent intensities of caspase-3 indicated the apoptotic activity of compounds 3 and 11.
Afterward, measure luminescence using the
tested in triplicates.[36-38].
active caspase-3 [49]. […] The tested
Subsequently, 100 µL of an
incubated for 30 min at room temperature.
chromogen. […] The intensity of the resulting colored

[10] = Homo sapiens, HCT-116, MTT assay
[11] = four cell lines, without HCT-116, read-out: IC50 range against HePG2, MCF-7, PC3, and HeLa cell lines

SMILES	IC50 ([1]; Homo sapiens, MCF7, MTT assay)	IC50 ([1]; MTT assay)	IC50 ([3]; Homo sapiens, HepG2, MTT assay)	IC50 ([3]; MTT assay)	IC50 [4]	IC50 [5, 10]	IC50 ([5]; MTT assay)	IC50 ([6]; Homo sapiens)	IC50 (WI38 normal cell)	IC50 (EGFR TK)	melting point	IC50 [2, 11]	further results
CN(C)C/C=C/C(=O)Nc1cc2c(Nc3ccc(F)c(Cl)c3)ncnc2cc1O[C@H]1CCOC1 [Afatinib, reference compound]	7.23 µM	7.2 ± 0.5 µM	5.53 µM	5.5 ± 0.24 µM	7.6 ± 0.6 µM	11.2 µM	11.2 ± 1.11 µM	6.3 ± 0.69 µM					IC50 ([2]; HePG2, HCT-116, MCF-7, PC3, HeLa, read-out: IC50 range over all tested cancer cell lines): 5.5 to 11.2 µM
CC(=C(C#N)C#N)c1cc2ccccc2o1 [Compound 2, 2-(1-(benzofuran-2-yl)ethylidene)malononitrile]	8.36 to 17.3 µM	8.36 ± 0.9 µM	16.1 to 23.7 µM	16.1 ± 1.4 µM	26.8 ± 2.2 µM	8.81 to 13.8 µM	8.81 ± 0.7 µM	39 ± 2.4 µM	86.5 ± 4.7 µM	1090 nM	140 to 142 °C		
CN(C)/C=C/C(=C(C#N)C#N)c1cc2ccccc2o1 [Compound 3, (E)-2-(1-(benzofuran-2-yl)-3-(dimethylamino)allylidene)malononitrile]	27.4 ± 1.8 µM		40 ± 2.5 µM		44.5 ± 3.5 µM	10.8 ± 1 µM		69 ± 3.9 µM	63.1 ± 3.43 µM	930 nM			Late apoptosis (HCT-116 cells [7]; control 0.11): 5.79%; Necrosis (HCT-116 cells [7]; control 0.12): 1.32%; Early apoptosis (HCT-116 cells [7]; control 0.16): 5.95%; Apoptosis, Total (HCT-116 cells [7]; control 0.39): 13.06%; %Pre/G1 (HCT-116 cells [8]; control 0.39, '% Apoptosis' in Figure 5A): 13.06%; %G2/M (HCT-116 cells [8]; control 4.19): 12.62%; %S (HCT-116 cells [8]; control 25.21): 20.91%; %G0/G1 (HCT-116 cells [8]; control 70.21): 53.41%; Caspase-3 Conc. ([9]; 24 h treatment, ELISA, control 63.51): 363.4 pg/mL; Caspase-3 level, Fold ([9]; compared to the control): 5.7 fold
CCNc1nccc(-c2cc3ccccc3o2)c1C#N [Compound 4, 4-(Benzofuran-2-yl)-2-(ethylamino)nicotinonitrile]	55 ± 3.2 µM		58.8 ± 3.3 µM		14.3 ± 1.3 µM	72.4 ± 3.8 µM		21 µM			155 to 158 °C	14.3 to 58.8 µM	IC50 [6]: 21.1 ± 1.6 µM
CCCNc1nccc(-c2cc3ccccc3o2)c1C#N [Compound 5, 4-(Benzofuran-2-yl)-2-(propylamino)nicotinonitrile]	> 100 µM		83.6 ± 4.4 µM		94.6 ± 4.9 µM	94.1 ± 5.1 µM		75.2 ± 4.8 µM			118 to 120 °C	75.2 to 100 µM	
CCCCNc1nccc(-c2cc3ccccc3o2)c1C#N [Compound 6, 4-(Benzofuran-2-yl)-2-(butylamino)nicotinonitrile]	81.6 ± 4 µM		79 ± 4.2 µM		> 100 µM	56.4 ± 3.2 µM		91.9 ± 5.1 µM	204 ± 11.1 µM		112 to 114 °C	75.2 to 100 µM	
